Results reported in ChEMBL document CHEMBL5291721, “A preclinical secondary pharmacology resource illuminates target-adverse drug reaction associations of marketed drugs” (Nat Commun, 2023).

Experiments:
[1] = molecular target: Gamma-aminobutyric acid receptor subunit alpha-1 (Rattus norvegicus, UniProt P62813)
[2] = molecular target: Muscarinic acetylcholine receptor M3 (Homo sapiens, UniProt P20309)
Endothelin-1 receptor = molecular target: T1, Endothelin-1 receptor (Homo sapiens, UniProt P25101)
T1 sequence (P25101 whole entry): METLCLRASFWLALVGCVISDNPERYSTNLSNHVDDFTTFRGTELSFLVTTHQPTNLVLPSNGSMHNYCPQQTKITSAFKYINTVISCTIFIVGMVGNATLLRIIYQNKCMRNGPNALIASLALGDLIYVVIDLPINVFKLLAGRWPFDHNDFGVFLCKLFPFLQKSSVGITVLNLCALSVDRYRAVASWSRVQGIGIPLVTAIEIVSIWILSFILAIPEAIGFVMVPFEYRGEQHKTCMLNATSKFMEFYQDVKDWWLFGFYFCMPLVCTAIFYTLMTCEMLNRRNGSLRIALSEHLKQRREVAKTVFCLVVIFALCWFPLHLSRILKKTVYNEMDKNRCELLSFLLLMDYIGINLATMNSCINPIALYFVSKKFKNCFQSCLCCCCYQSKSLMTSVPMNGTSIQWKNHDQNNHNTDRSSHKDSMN

[3] = molecular target: T2, Prostaglandin G/H synthase 1 (Rattus norvegicus, UniProt Q63921); format: functional
T2 sequence (Q63921 whole entry): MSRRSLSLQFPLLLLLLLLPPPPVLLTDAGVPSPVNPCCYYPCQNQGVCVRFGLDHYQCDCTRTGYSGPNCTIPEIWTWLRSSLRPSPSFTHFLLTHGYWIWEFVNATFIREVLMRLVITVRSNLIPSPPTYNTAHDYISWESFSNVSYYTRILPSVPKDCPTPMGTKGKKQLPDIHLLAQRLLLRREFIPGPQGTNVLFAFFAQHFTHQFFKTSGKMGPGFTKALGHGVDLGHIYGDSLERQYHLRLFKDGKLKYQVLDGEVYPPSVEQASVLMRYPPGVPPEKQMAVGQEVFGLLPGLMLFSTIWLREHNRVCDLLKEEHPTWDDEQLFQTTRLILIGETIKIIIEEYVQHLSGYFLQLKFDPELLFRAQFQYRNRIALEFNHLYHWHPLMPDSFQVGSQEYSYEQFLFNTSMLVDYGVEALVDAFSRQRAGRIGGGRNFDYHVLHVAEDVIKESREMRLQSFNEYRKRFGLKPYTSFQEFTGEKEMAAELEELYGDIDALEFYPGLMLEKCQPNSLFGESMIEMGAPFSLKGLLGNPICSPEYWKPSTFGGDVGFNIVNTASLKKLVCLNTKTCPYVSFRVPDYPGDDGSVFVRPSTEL

Adenosine receptor A3 = molecular target: T3, Adenosine receptor A3 (Homo sapiens, UniProt P0DMS8)
T3 sequence (P0DMS8 whole entry): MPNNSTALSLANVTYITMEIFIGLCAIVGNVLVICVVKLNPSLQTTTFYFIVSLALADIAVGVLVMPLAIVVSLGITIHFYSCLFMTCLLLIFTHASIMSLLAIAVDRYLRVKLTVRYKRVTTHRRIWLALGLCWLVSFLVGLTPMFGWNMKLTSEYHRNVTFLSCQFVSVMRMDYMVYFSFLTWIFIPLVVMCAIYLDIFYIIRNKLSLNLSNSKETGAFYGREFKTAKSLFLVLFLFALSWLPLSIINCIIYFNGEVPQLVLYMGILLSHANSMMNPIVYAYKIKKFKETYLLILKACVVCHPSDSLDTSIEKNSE

Thromboxane A2 receptor = molecular target: T4, Thromboxane A2 receptor (Homo sapiens, UniProt P21731)
T4 sequence (P21731 whole entry): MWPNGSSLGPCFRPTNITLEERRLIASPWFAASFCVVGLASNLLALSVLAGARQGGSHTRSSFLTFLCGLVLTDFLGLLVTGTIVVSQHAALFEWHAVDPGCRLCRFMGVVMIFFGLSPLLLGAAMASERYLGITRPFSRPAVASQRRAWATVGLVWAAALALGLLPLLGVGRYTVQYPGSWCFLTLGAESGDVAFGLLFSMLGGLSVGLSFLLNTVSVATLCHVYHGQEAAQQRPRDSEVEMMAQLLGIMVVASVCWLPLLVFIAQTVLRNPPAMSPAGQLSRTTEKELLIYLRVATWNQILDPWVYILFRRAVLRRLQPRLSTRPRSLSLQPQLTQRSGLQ

[4] = molecular target: Voltage-gated inwardly rectifying potassium channel KCNH2 (Homo sapiens, UniProt Q12809); format: functional
Voltage-gated inwardly rectifying potassium channel KCNH2, sequence (Q12809 whole entry): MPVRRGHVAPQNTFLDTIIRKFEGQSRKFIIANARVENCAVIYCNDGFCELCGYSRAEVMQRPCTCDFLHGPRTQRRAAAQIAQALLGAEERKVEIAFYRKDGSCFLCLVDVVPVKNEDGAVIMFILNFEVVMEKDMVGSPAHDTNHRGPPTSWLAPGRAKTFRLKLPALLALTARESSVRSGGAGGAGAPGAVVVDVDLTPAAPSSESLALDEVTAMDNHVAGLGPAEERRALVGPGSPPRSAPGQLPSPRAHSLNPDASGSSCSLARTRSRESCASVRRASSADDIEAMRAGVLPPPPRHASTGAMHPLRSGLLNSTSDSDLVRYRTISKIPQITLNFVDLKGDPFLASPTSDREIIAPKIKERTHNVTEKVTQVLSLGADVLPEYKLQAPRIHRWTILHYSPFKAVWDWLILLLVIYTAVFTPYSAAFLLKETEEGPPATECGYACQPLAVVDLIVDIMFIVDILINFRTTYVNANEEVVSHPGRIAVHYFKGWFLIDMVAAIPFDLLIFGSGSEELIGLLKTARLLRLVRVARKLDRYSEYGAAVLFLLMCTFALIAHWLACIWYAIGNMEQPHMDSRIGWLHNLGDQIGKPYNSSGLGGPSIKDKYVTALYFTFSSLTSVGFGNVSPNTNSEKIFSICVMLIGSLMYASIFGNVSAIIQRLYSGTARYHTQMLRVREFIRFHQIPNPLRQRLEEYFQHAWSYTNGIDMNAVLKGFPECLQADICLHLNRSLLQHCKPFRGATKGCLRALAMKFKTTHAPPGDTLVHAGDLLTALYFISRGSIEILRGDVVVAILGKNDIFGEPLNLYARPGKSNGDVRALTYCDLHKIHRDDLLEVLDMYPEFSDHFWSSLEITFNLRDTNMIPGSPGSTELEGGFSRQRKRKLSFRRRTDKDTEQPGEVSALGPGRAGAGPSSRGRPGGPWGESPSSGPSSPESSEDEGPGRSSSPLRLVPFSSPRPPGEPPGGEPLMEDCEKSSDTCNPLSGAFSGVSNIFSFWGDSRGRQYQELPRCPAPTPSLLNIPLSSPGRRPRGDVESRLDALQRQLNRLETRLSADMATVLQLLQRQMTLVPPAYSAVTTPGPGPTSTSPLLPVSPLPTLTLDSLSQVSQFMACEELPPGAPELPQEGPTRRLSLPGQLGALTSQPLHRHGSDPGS

Histamine H3 receptor = Histamine H3 receptor (Homo sapiens, UniProt Q9Y5N1)
Histamine H3 receptor, sequence (Q9Y5N1 whole entry): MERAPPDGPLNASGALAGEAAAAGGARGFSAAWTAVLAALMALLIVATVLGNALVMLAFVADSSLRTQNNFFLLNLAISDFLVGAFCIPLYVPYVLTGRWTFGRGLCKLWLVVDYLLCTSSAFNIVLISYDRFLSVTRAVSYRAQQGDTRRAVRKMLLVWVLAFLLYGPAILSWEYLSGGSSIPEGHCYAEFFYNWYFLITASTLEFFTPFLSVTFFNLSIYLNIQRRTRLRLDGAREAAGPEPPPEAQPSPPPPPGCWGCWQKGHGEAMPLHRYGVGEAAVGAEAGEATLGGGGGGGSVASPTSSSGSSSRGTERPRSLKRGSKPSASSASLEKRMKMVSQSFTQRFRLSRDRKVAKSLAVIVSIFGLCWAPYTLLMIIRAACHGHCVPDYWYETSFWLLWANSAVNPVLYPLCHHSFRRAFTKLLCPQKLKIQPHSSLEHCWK

[5] = molecular target: Beta-2 adrenergic receptor (Homo sapiens, UniProt P07550)
Progesterone receptor = molecular target: T5, Progesterone receptor (Homo sapiens, UniProt P06401); format: functional
T5 sequence (P06401 whole entry): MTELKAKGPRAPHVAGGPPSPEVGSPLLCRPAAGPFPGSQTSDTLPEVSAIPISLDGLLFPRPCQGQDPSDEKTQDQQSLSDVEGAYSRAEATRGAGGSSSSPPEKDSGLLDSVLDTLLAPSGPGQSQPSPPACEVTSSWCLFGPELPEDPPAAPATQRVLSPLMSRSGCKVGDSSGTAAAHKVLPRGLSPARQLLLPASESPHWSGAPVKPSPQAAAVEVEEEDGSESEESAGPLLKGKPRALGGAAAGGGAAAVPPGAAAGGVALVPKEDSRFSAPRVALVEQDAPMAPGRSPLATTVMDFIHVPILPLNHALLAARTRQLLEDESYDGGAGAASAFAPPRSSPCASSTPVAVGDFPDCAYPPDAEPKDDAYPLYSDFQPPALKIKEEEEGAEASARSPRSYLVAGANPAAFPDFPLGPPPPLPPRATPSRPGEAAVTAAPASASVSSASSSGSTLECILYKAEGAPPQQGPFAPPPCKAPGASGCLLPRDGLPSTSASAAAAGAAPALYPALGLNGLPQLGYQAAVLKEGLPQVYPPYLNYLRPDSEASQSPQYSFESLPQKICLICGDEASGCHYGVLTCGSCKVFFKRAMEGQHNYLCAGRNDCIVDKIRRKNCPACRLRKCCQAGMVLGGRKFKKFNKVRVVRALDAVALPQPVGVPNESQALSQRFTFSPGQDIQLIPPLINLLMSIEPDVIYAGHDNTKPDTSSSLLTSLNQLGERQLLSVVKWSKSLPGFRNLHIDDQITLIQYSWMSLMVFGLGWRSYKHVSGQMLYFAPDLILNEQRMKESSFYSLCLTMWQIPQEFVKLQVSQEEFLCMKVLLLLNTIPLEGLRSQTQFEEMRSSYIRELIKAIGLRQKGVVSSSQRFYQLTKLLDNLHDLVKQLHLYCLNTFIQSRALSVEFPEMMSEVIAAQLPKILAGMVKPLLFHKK
Also: assay procedure not described here.

Muscarinic acetylcholine receptor M3, sequence (P20309 whole entry): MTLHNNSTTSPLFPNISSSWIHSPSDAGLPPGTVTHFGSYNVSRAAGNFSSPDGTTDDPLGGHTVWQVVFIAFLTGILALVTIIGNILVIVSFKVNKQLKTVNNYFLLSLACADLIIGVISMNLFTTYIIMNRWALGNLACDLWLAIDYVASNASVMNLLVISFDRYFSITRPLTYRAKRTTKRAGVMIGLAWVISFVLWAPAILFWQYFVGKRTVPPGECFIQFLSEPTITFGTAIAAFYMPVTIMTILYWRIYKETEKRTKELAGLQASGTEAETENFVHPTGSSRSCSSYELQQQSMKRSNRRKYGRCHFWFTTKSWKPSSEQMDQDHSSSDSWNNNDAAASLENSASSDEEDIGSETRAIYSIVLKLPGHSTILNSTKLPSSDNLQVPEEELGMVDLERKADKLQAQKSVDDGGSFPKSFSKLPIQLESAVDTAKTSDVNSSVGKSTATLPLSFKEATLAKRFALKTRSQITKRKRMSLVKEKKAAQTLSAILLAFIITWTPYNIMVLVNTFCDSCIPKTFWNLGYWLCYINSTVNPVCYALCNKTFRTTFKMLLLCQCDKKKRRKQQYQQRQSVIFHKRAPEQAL
Gamma-aminobutyric acid receptor subunit alpha-1, sequence (P62813 whole entry): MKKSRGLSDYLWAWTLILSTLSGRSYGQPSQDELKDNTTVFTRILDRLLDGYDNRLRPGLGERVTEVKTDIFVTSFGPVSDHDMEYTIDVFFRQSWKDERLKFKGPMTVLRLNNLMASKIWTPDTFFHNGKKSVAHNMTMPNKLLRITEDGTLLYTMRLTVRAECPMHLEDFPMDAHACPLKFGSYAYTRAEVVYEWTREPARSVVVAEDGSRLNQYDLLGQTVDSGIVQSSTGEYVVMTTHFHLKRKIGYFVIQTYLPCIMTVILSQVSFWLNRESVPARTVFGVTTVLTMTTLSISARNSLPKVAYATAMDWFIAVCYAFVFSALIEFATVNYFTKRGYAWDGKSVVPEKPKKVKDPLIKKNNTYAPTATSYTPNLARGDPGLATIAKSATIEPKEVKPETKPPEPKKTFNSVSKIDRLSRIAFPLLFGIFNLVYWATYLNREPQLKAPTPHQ

Row | Molecule | AC50 [1] [µM] | AC50 [2] [µM] | AC50 (Endothelin-1 receptor) [µM] | AC50 [3] [µM] | AC50 (Adenosine receptor A3) [µM] | AC50 (Thromboxane A2 receptor) [µM] | AC50 ([4]; read-out: AC50) [µM] | AC50 (Histamine H3 receptor) [µM] | AC50 [5] [µM] | AC50 (Progesterone receptor) [µM] | AC50 ([4]; human, cellular components) [µM]
1 | O=C(O)c1ccc2nc(-c3cc(Cl)cc(Cl)c3)oc2c1 | > 30 | > 30 | > 30 | > 30 | > 30 | > 30 | > 30 | > 30 | > 30 | > 30 | 
2 | NS(=O)(=O)c1ccc(N2CCCCS2(=O)=O)cc1 | > 30 | > 30 | > 30 | > 30 | > 30 | > 30 | > 30 | > 30 | > 30 | > 30 | 
3 | COc1ccc(-n2nc(C(N)=O)c3c2C(=O)N(c2ccc(N4CCCCC4=O)cc2)CC3)cc1 [APIXABAN] | > 30 | > 30 | > 30 | > 30 | > 30 |  | > 30 | > 30 |  | > 30 | 
4 | Oc1cc(O)c2c(c1)O[C@H](c1ccc(O)c(O)c1)[C@@H](O)C2 [CIANIDANOL] | > 10 | > 30 | > 30 |  | 22.2 | > 30 | > 30 | > 10 | > 10 |  | 
5 | CCN(CC)C(C)C(=O)c1ccccc1 (configuration not stated) [DIETHYLPROPION] | > 10 | > 30 | > 30 | > 30 | > 30 | > 30 | 6.5 | > 10 | > 10 |  | 
6 | Cc1ccc(-c2ncc(Cl)cc2-c2ccc(S(C)(=O)=O)cc2)cn1 [ETORICOXIB] | > 10 | > 10 | > 30 | > 30 | > 10 | > 10 | > 30 | > 10 | > 10 |  | 
7 | CN1C(=O)CN=C(c2ccccc2F)c2cc([N+](=O)[O-])ccc21 [FLUNITRAZEPAM] | > 10 | > 30 | > 30 | > 30 | > 30 | > 30 | > 30 | > 10 | > 10 |  | 
8 | COc1ccc2c3c1O[C@H]1C(=O)CC[C@H]4[C@@H](C2)N(C)CC[C@]314 [HYDROCODONE] | > 10 | > 10 | > 30 | > 30 | > 30 | > 30 | > 30 | > 10 | > 10 |  | 
9 | CCC(=O)O[C@H](CC(=O)O)C[N+](C)(C)C [LEVOCARNITINE PROPIONATE] | > 30 | > 30 | > 30 | > 30 | > 30 |  | > 30 | > 30 |  | > 30 | 
10 | COC(=O)c1ccc2c(c1)NC(=O)/C2=C(\Nc1ccc(N(C)C(=O)CN2CCN(C)CC2)cc1)c1ccccc1 [NINTEDANIB] | > 30 | > 30 | > 30 | > 30 | > 30 |  | 9.1 | > 30 |  | > 30 | 
11 | CN1CCCN=C1/C=C/c1cccc(O)c1 [OXANTEL] | > 30 | > 30 | > 30 | > 30 | 22 | > 30 | 6.2 | > 30 |  | > 30 | 
12 | CC1NCCOC1c1ccccc1 (configuration not stated) [PHENMETRAZINE] | > 10 | > 30 | > 30 | > 30 | > 30 | > 30 | > 30 | > 10 | > 10 |  | 
13 | CC(C)(N)Cc1ccccc1 [PHENTERMINE] | > 10 | > 30 | > 30 | > 30 | > 30 | > 30 | > 30 | > 10 | > 10 |  | 
14 | CS(=O)(=O)NC(=O)CCC/C=C\C[C@H]1C(=O)C[C@@H](O)[C@@H]1/C=C/[C@@H](O)COc1ccccc1 [SULPROSTONE] | > 30 | > 30 | > 30 | > 30 | > 30 |  | > 30 | > 30 |  | > 30 | 
15 | CCCCC[C@H](O)CC[C@@H]1[C@H]2Cc3cccc(OCC(=O)O)c3C[C@H]2C[C@H]1O [TREPROSTINIL] | > 30 | > 30 | > 30 | > 30 | > 30 | > 30 | > 30 | > 30 |  | > 30 | 
16 | CN(C)CCOCC(=O)NC12CC3CC(CC(C3)C1)C2 [TROMANTADINE] |  | > 30 | > 30 | > 30 | > 30 | > 30 | > 30 | > 30 | > 30 | > 30 | 
17 | CCCCCCCC(=O)CC[C@@H]1[C@@H](C/C=C\CCCC(=O)O)[C@@H](O)C[C@H]1O [UNOPROSTONE] | > 30 | > 30 | > 30 | > 30 | > 30 |  | > 30 | > 30 |  | > 30 | 
18 | SITOSTEROLS | > 30 | > 30 | > 30 |  | > 30 | > 30 |  | > 30 | > 30 |  | > 30
